Laboratory results taken from patent publication US7074768B2, “Modified protein kinase A-specific oligonucleotides and methods of their use” (Idera Pharmaceuticals, Inc., priority 1995, dated 2006).

Tests used:
p27 = experiment: Histochemical analysis of GEO tumors: p27; format: in vivo
Description: Tumor specimens from the different groups of mice were examined by histochemical analysis at different time points to evaluate the expression of a variety of biological parameters. […] No other treatment was able to affect RIα expression.
Loda et al. (Nature Medicine 3:231–234 (1997)) discloses that the cyclin-dependent kinase (CDK) inhibitor p27 is […] related to cell entry into S phase and proliferation and that reduction of its expression correlates with poor prognosis in colon cancer patients.

[1] = system: ZR75-1 human breast cancer cells; experiment: Soft agar growth of ZR75-1 cells; format: cell-based; conditions: for inhibition of cell growth: every 48 hours for three times (Examples 24, 25)
Procedure: (§1) Cells (10^4 cells/well) were seeded in 0.5 ml of 0.3% Difco Noble agar (Difco, Detroit, Mich.) supplemented with complete culture medium. This suspension was layered over 0.5 ml of 0.8% agar-medium base layer in 24 multiwell cluster dishes (Becton Dickinson) and treated with various concentrations of docetaxel (day 0). […] Twelve days after the last treatment, cells were stained with nitroblue tetrazolium (Sigma) and colonies larger than 0.05 mm were counted.
as §1
(§2) Soft agar growth. Cells (10^4 cells/well) were seeded in 0.5 ml of 0.3% Difco Noble agar (Difco, Detroit, Mich.) supplemented with complete culture medium. This suspension was layered over 0.5 ml of 0.8% agar-medium base layer in 24 multiwell cluster dishes (Becton Dickinson) and treated with various concentrations of docetaxel (day 0). The HYB 165 was added after 12 hrs (day 1) and on day 3. Twelve days after the last treatment, cells were stained with nitroblue tetrazolium (Sigma) and colonies larger than 0.05 mm were counted.
as §2, with “508” for “165”, “hrs” for “hrs (day 1)”, “2, 3 and 4. After 12” for “3. Twelve”, “days” for “days after”, “the” for “the last treatment,”
Soft agar growth. Cells (10^4 cells/well) were seeded in 0.5 ml of 0.3% Difco Noble agar (Difco, Detroit, Mich.) supplemented with complete culture medium. […] After 12 days the cells were stained with nitroblue tetrazolium (Sigma) and colonies larger than 0.05 mm were counted.
as §2, with “of” for “of docetaxel (day 0). The”, “or HYB295 every 48 hours for three times. After” for “was added after”, “12” for “12 hrs (day 1) and on day 3. Twelve”, “days” for “days after”, “the” for “the last treatment,”, “(Sigma, St. Louis, Mo.)” for “(Sigma)”
as §2, with “of” for “of docetaxel (day 0). The”, “or HYB508 every 48 hours for three times. After” for “was added after”, “12” for “12 hrs (day 1) and on day 3. Twelve”, “days” for “days after”, “the” for “the last treatment,”, “(Sigma, St. Louis, Mo.)” for “(Sigma)”

[2] = system: Factor VIII related antigen; experiment: Tumor-induced neovascularization (anti-Factor VIII related antigen immunohistochemistry); format: in vivo
Description: In recent years, the critical role of tumor-induced neovascularization in neoplastic development, progression and metastasis has been elucidated (J. I. Fokman, In: J. Mendelsohn et al., eds., The Molecular Basis of Cancer, pp 206–232, Philadelphia: W B Saunders (1995) . A reliable histologic estimate of novel blood vessels on tumor specimens is the microvessel count (MVC) in the most intense areas of neovascularization. In the present study, tumor-induced neovascularization was quantified by immunohistochemistry using an anti-Factor VIII related antigen monoclonal antibody (N. Weidner, Breast Cancer Res. Treat., 36:169–180 (1995)).

AR = experiment: Histochemical analysis of GEO tumors: AR; format: in vivo; conditions: after two cycles
Description: (§3) Tumor specimens from the different groups of mice were examined by histochemical analysis at different time points to evaluate the expression of a variety of biological parameters.
(§4) TGFα and AR are growth factors which bind to EGFR and control human colon cancer growth through autocrine and paracrine mechanisms (F. Ciardiello and G. Tortora, Clin. Cancer Res. 4:821–828 (1998); D. S. Salomon, Crit. Rev. Oncol. Hematol. 19:183–232 (1995)).

[3] = system: OVCAR-3 ovarian cancer cells; experiment: Soft agar growth of OVCAR-3 cells; format: cell-based, human
Procedure: Cell lines. OVCAR human ovarian cancer cells were purchased from American Type Culture Collection (Rockville, Md., USA). Cells were maintained in DMEM and HAM'S F-12 (1:1) supplemented with 10% heat-inactivated FBS, 20 mM HEPES, pH 7.4, penicillin (100 UI/ml), streptomycin (100 μg/ml) and 4 mM glutamine (ICN, Irvine, UK) in a humified atmosphere of 95% air and 5% CO2 at 37° C.
as §2, with “of” for “of docetaxel (day 0). The”, “or HYB295 every 48 hours for three times. After” for “was added after”, “12” for “12 hrs (day 1) and on day 3. Twelve”, “days” for “days after”, “the” for “the last treatment,”, “(Sigma, St. Louis, Mo.)” for “(Sigma)”

TGFα = experiment: Histochemical analysis of GEO tumors: TGFα; format: in vivo; conditions: single agent, after two cycles
Description: as §3, §4

Which results are given for “HYB 165: Hybrid 18-mer mixed backbone antisense to PKA RIα, GCGUGCCTCCTCACUGGC (SEQ ID NO:4), 2-O-methyl ribonucleotides at 5′ and 3′ ends (sugars by position and backbone not given here; 2'-O-methyl ribonucleotides at both ends, mixed backbone)”?
p27 expression (p27; single agent): able to increase p27 expression; increase in intensely positive cell staining for p27 (p27; taxol and antisense RIα in combination): 2.5 fold; inhibition of cell growth ([1]; 0.1 μM): approximately 5%; inhibition of cell growth ([1]; 1 μM): about 34%; inhibition of cell growth ([1]; 2.5 μM): over 85%; growth inhibition ([1]; HYB 165 0.1 μM + C225 0.25 μg/ml (days 1, 3) after docetaxel 0.01 nM (day 0)): 93%; growth inhibition ([1]; HYB 165 0.1 μM + MAb C225 0.25 μg/ml): 37%; growth inhibition ([1]; HYB 165 0.1 μM + MAb C225 0.5 μg/ml): 65%; growth inhibition ([1]; HYB 165 0.1 μM + MAb C225 1 μg/ml): 85%; growth inhibition ([1]; HYB 165 0.1 μM + MAb C225 2.5 μg/ml): 90%; growth inhibition ([1]; HYB 165 0.1 μM after docetaxel 0.01 nM): 40%; growth inhibition ([1]; HYB 165 0.1 μM after docetaxel 0.03 nM): 70%; growth inhibition ([1]; HYB 165 0.1 μM after docetaxel 0.1 nM): 86%; growth inhibition ([1]; HYB 165 0.1 μM after docetaxel 0.3 nM): 97%; growth inhibition ([1]; HYB 165 0.1 μM alone (Example 13)): about 8%; growth inhibition ([1]; HYB 165 0.1 μM alone (Example 21)): about 5%; growth inhibition ([1]; HYB 165 0.1 μM alone (Example 23)): about 2%; growth inhibition ([1]; HYB 165 0.5 μM + MAb C225 0.25 μg/ml): 57%; growth inhibition ([1]; HYB 165 0.5 μM + MAb C225 0.5 μg/ml): 70%; growth inhibition ([1]; HYB 165 0.5 μM + MAb C225 1 μg/ml): 90%; growth inhibition ([1]; HYB 165 0.5 μM + MAb C225 2.5 μg/ml): 98%; growth inhibition ([1]; HYB 165 0.5 μM after docetaxel 0.01 nM): 65%; growth inhibition ([1]; HYB 165 0.5 μM after docetaxel 0.03 nM): 66%; growth inhibition ([1]; HYB 165 0.5 μM after docetaxel 0.3 nM): 99%; growth inhibition ([1]; HYB 165 0.5 μM after docetaxel 0.1 1 nM): 86%; growth inhibition ([1]; HYB 165 0.5 μM alone (Example 21)): about 15%; growth inhibition ([1]; HYB 165 0.5 μM alone (Example 23)): about 10%; cooperative effect of the combination ([1]; sequential combination with different doses of docetaxel): cooperatively inhibits the growth of ZR75-1 cells; cooperative effect of the combination ([1]; with MAb C225 0.25 μg/ml and docetaxel 0.01 nM): cooperatively inhibit the growth of ZR75-1 cells; cooperative effect of the combination ([1]; with different doses of MAb C225): cooperatively inhibit the growth of ZR-75-1 cells; vessel formation ([2]; combined treatment with taxol and HYB 165): completely suppressed vessel formation in GEO tumors; inhibition of staining (microvessel count) ([2]; single agent, vs untreated mice or scramble MBO): about 80%; expression of AR (AR; in combination with taxol): further enhanced; expression of AR (AR; single agent): inhibited the expression of TGF α and AR; inhibition of cell growth ([3]; 0.1 μM): approximately 25%; inhibition of cell growth ([3]; 0.5 μM): about 58%; inhibition of cell growth ([3]; 1 μM): about 75%; inhibition of cell growth ([3]; 2.5 μM): about 95%; expression of TGFα (TGFα): inhibited the expression of TGF α and AR
